Assay results: patent publication US20060057639A1, “CaMKII/calcium channel phosphorylation-related compositions and methods” (priority 2004, published 2006)

Columns and labels:
[1] = target: cloned L-type channels (subunit α1C77) (Homo sapiens, UniProt Q13936); assay: Check for use-dependence of diltiazem block of calcium currents supported by cloned L-type channels; type: cell-based; details: same solutions and voltage protocol as in granule cells; diltiazem 100 μM
Method: Dissociated cerebellar granule cells were prepared from 7-day old C57/BL6 mouse cerebella and grown in culture by a published protocol (Piedras-Renteria and Tsien, 1998; Randall and Tsien, 1995). The cerebellar granule cells were maintained in Minimal Essential Medium (Invitrogen) supplemented with 10% fetal bovine serum, glucose 5 mg/liter, transferrin 100 mg/liter, insulin 25 mg/liter, glutamine 300 mg/liter, and potassium chloride 20 mM. Cells were plated on Matrigel (Collaborative Biomedical Product) treated glass coverslips in 24-well chambers and maintained in a humidified, 37° C. incubator with […]/5% CO2. Cells were maintained for 6 to 9 days in culture prior to electrophysiological experiments. HEK293 cells stably transfected with the α2-δ and β1C subunits (HEKα2β1) were grown in Dulbecco's Modified Eagle's Medium containing 10% v/v calf serum, penicillin (100 units/ml), streptomycin (100 μg/ml), and kept under positive selection with Geneticin (400 μg/ml) while being maintained as described above. cDNAs encoding the α1C77 subunit (Zühlke and Reuter, 1998) and the green fluorescent protein were transiently transfected into HEKα2β1 cells by using the Lipofectamine2000 reagent (Invitrogen). Electrophysiological experiments were performed >24 hrs after transfection.

[2] = system: CaMKII; assay: CaMKII dephosphorylation using PP1, autonomous activity measurement; type: biochemical; details: n=4
Sequence of CaMKII (P11275 whole entry, the tested form may be a part): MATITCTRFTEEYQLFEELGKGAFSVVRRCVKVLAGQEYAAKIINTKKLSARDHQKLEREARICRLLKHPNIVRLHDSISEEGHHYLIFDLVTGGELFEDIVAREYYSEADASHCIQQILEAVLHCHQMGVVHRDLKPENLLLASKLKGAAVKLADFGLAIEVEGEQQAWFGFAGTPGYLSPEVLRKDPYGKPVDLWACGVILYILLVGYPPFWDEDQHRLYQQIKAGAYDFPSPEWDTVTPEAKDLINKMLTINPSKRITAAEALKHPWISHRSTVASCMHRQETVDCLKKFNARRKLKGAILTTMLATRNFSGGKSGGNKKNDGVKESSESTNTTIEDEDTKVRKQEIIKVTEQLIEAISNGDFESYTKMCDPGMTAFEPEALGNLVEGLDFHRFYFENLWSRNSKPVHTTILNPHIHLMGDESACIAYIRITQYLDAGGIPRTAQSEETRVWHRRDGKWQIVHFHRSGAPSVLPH
Method: Immunoblots with CBα2 or a phospho-specific CaMKII monoclonal antibody after GST pull down assays, using α1C amino acids 1509-1950 and 20 nM autophosphorylated α-CaMKII. (A) 5 mM EGTA was present in the binding reaction and/or in the wash; in (B), purified recombinant PP1 was added before (PP1-Pre) or after (PP1-Post) the binding reaction in the presence or absence of 5 mM EGTA, as indicated. (C) Time course of reversal of CaMKII autonomous activity following PP1 treatment in solution (n=4). (D) Activity measurements, using peptide AC-2 as a substrate, of CaMKII recovered in GST pull down assays, using α1C amino acids 1509-1950. Ca^2+/CaM-dependent and autonomous activity measurements of CaMKII recovered after treatment with recombinant PP1 for 30 min (PP1) or no treatment (−) in the binding assay (n=4). (E) Proposed mechanism of CaMKII binding to α1C to form a local and dedicated Ca^2+ spike integrator for CDF. […] Ca ^2+/CaM activation and Thr 286 autophosphorylation displace the CaMKII autoregulatory domain within the catalytic lobe to activate the subunit (yellow) and to expose an α1C tethering site. […] CaMKII may remain tethered to other cytoplasmic domains of α1C, as well. […]

[3] = target: T1, interaction of autophosphorylated CaMKII with α1C amino acids 1581-1690 (Rattus norvegicus, UniProt P11275); assay: GST pull down of autophosphorylated α-CaMKII with α1C 1581-1690 fusion protein, peptide interference; type: binding; details: 40 μM peptide; 20 nM autophosphorylated α-CaMKII
T1 construct: made in house; host or cells: GST fusion from bacteria
Method: (B) Immunoblot with CBα2 after GST pull down of purified autophosphorylated α-CaMKII (20 nM), using α1C amino acids 1581-1690 fused to GST. Pull down assay performed in the presence of 40 μM of the indicated peptide or the peptide diluent DMSO. (C) Immunoblots with CBα2 or an anti-CaM antibody after a GST pull down assay, using α1C amino acids 1581-1690 (WT), a ^1644TVGKFY^1649→EEDAAA mutant (Mut6), or GST alone, of purified autophosphorylated CaMKII (left) or CaM (right). Top panels show a Ponceau stain of each fusion protein. […] Asterisk indicates p<0.001 for a one-way analysis of variance followed by a Dunnett's test to identify specific pair-wise differences between the means for Mut6 vs. wt and GST vs. wt, n=4-8. […] Top panels show a Ponceau stain of each fusion protein.
Peptides spanning α1C residues 1581-1690 have previously been described (Pitt et al., 2001). The NMDA-L peptide (Bayer et al., 2001), peptides AC-2 (Hanson et al., 1989), AC-3i (Braun and Schulman, 1995), and AC-3c (Braun and Schulman, 1995) have been described elsewhere.
The binding reactions were accomplished in Tris binding buffer (50 mM Tris, 150 mM NaCl, 0.1% T-20 at pH 7.4 ml plus 0.1% BSA) containing 20 nM purified CaMKII. The total protein from the HEK293 cell lysates added to each binding reaction ranged from 9-22 μg, determined by normalizing for the amount of CaMKII activity (Singla et al., 2001). Pre-autophosphorylayion of CaMKII (purified and lysate) was accomplished at 4° C. for 5 min in Tris binding buffer plus 1 mM CaCl2, 5 μM CaM, 1 mM ATP, and 5 mM MgCl2 to restrict the sites of autophosphorylation to primarily Thr286 (Ikeda et al., 1991; Lai et al., 1987; Lou and Schulman, 1989). Final concentration of these components in the binding reaction (1:40) was 0.025 mM CaCl2, 0.125 μM CaM, 0.025 mM ATP, and 0.125 mM MgCl2. The binding reaction was rocked for 1 h at 4° C. and the beads extensively washed in Tris binding buffer (2-3× for 5 mins each). […] CaMKII binding was quantified using densiotometric measurement of band intensity using KODAK 1D Image Analysis Software (Eastman Kodak, Company). […]

[4] = system: L-type Ca^2+ currents in cerebellar granule cells; assay: Patch-clamp recording of Ca2+-dependent facilitation of L-type currents in cultured cerebellar granule cells; type: cell-based, mouse; details: 2 μM peptide in patch pipette; Ca^2+ as charge carrier; train of five pulses; without peptide facilitation averaged ~50%
Method: Dissociated cerebellar granule cells were prepared from 7-day old C57/BL6 mouse cerebella and grown in culture by a published protocol (Piedras-Renteria and Tsien, 1998; Randall and Tsien, 1995). The cerebellar granule cells were maintained in Minimal Essential Medium (Invitrogen) supplemented with 10% fetal bovine serum, glucose 5 mg/liter, transferrin 100 mg/liter, insulin 25 mg/liter, glutamine 300 mg/liter, and potassium chloride 20 mM. Cells were plated on Matrigel (Collaborative Biomedical Product) treated glass coverslips in 24-well chambers and maintained in a humidified, 37° C. incubator with […]/5% CO2. Cells were maintained for 6 to 9 days in culture prior to electrophysiological experiments. […]
Cerebellar granule cells, identified on the basis of morphology and size, comprised >90% of the cells in the primary culture. […] Voltage-gated Ca^2+ and Ba^2+ currents were recorded from cells depolarized to 0 mV with five 20 ms pulses (50 ms interpulse interval) from a −90 mV holding potential. […]

Sequence of cloned L-type channels (subunit α1C77) (Q13936 1-2138 isoform Q13936-20): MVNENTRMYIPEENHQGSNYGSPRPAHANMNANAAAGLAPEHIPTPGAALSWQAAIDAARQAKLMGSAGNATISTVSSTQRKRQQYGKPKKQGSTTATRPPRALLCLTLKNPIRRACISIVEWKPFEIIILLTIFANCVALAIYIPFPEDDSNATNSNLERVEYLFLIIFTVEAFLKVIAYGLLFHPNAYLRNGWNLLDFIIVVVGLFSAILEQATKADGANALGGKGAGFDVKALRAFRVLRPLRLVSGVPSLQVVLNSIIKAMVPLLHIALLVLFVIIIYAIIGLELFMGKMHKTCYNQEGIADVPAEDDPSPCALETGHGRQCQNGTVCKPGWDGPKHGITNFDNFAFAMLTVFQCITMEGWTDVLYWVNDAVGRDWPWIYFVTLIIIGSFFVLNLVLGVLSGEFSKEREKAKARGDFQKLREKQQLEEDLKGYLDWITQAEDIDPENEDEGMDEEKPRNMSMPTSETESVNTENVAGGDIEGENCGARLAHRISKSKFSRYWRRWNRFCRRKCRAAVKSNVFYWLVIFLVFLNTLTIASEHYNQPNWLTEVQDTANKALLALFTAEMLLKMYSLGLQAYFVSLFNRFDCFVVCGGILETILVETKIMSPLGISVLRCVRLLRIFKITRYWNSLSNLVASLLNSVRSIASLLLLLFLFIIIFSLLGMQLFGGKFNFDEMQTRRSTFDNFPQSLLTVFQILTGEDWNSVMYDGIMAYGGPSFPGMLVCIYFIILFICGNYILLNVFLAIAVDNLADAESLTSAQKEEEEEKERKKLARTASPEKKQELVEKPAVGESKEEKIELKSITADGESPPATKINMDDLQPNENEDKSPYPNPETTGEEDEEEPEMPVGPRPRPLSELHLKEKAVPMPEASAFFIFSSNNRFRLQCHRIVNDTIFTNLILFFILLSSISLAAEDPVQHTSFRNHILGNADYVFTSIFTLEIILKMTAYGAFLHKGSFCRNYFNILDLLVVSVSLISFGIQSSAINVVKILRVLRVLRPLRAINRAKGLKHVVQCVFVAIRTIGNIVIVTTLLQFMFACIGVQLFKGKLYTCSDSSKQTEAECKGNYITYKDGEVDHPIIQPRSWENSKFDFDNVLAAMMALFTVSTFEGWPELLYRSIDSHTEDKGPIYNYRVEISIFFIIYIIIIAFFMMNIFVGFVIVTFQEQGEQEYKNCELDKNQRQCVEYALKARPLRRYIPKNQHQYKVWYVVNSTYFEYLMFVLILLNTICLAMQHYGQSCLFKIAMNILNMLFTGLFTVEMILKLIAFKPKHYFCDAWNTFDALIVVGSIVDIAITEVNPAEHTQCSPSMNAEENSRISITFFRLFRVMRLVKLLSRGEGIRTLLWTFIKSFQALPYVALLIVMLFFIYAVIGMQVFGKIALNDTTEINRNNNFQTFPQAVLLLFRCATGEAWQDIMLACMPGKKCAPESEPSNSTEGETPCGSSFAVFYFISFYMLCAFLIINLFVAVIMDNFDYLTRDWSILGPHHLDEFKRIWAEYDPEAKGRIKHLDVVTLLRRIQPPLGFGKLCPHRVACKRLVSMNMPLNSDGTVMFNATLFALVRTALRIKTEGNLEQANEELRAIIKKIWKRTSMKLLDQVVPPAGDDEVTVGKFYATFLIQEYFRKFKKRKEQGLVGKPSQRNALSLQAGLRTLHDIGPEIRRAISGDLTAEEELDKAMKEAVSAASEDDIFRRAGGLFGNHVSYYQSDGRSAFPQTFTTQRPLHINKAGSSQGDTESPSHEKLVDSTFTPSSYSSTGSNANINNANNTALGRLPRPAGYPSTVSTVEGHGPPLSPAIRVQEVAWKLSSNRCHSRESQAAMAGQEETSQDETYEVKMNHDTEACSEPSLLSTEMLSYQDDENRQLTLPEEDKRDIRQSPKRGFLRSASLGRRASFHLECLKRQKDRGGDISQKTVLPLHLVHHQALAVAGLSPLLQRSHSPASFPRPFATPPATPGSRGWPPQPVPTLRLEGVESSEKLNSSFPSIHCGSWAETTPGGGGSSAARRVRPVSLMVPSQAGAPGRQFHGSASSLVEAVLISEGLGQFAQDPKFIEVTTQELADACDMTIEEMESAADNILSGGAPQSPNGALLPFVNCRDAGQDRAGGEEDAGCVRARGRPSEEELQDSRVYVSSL
Sequence of cloned L-type channels (subunit α1C77) (P54289 25-956 partner limits assumed): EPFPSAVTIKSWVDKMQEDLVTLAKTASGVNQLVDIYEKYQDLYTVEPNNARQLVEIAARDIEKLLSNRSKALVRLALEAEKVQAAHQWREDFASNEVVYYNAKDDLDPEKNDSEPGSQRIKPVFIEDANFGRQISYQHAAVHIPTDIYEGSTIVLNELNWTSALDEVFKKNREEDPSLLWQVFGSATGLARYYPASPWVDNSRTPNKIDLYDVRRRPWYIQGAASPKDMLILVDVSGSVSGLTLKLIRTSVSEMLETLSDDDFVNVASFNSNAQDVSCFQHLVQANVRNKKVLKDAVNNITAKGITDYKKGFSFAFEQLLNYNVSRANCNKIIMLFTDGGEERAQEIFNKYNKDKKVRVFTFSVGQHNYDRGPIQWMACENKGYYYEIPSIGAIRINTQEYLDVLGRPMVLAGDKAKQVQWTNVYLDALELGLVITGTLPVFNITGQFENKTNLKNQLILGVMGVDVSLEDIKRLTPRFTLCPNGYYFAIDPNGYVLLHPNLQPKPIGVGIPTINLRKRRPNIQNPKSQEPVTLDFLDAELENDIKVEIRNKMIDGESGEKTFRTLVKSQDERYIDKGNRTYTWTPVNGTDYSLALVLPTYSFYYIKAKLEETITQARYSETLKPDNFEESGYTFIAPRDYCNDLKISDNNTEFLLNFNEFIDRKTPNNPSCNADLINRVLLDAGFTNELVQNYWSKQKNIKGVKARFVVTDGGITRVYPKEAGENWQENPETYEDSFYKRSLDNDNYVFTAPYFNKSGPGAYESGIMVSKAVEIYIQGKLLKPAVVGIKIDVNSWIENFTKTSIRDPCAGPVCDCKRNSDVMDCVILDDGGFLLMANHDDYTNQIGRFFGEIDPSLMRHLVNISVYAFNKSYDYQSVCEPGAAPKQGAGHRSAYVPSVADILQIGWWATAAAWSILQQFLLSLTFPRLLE
Sequence of cloned L-type channels (subunit α1C77) (P54289 957-1103 partner limits assumed): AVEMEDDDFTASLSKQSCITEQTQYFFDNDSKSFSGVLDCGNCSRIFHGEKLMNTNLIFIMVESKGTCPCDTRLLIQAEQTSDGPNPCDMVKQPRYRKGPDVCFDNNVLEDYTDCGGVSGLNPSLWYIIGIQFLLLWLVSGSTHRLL
Sequence of cloned L-type channels (subunit α1C77) (Q02641 whole entry partner): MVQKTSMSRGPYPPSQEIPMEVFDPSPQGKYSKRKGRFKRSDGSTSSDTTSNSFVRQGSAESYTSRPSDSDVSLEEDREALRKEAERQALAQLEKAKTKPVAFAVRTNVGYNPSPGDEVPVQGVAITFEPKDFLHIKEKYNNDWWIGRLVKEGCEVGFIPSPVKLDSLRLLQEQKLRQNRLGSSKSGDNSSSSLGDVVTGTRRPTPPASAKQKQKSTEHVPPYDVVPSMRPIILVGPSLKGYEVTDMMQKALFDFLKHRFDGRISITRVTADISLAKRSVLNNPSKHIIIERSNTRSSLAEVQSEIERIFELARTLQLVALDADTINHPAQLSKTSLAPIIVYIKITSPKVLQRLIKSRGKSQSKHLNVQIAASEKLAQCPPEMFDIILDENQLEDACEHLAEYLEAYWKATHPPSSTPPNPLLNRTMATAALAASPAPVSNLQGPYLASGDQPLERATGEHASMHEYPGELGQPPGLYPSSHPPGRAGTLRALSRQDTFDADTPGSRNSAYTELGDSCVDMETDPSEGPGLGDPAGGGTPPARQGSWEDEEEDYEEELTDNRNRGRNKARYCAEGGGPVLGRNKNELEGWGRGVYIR

COc1ccc([C@@H]2Sc3ccccc3N(CCN(C)C)C(=O)[C@@H]2OC(C)=O)cc1 [diltiazem]
use-dependence of diltiazem block of calcium currents [1]: none were found

PP1: Hisx6-tagged protein phosphatase 1 catalytic subunit, purified recombinant
remaining autonomous activity of α1C-bound CaMKII, % of that without PP1 treatment ([2]; PP1 for 30 min, peptide AC-2 as substrate): 1.2±0.6%
time to complete dephosphorylation (loss of autonomous activity) of soluble kinase ([2]; soluble CaMKII in solution): ≤ 30 min

1639-1660: ~22 aa peptide generated from α1C residues 1639-1660 (Pitt et al., 2001) (KIWKRTSMKLLDQVVPPAGDDE; UniProt Q13936 1639-1660, looked up, fragment)
interaction of the kinase with the 1581-1690 fusion protein in presence of peptide [3]: dramatically reduced

1615-1636: ~22 aa peptide of α1C residues 1615-1636, site important for tethering of apoCaM (RTALRIKTEGNLEQANEELRAI; UniProt Q13936 1615-1636, looked up, fragment)
interaction of the kinase with the 1581-1690 fusion protein in presence of peptide [3]: not inhibited

1589-1610: ~22 aa peptide of α1C residues 1589-1610, site important for tethering of apoCaM (KRLVSMNMPLNSDGTVMFNATL; UniProt Q13936 1589-1610, looked up, fragment)
interaction of the kinase with the 1581-1690 fusion protein in presence of peptide [3]: not inhibited

autocamtide-2-related inhibitory peptide (KKALRRQEAVDAL)
decrease in peak L-type current over the course of the depolarizing pulse train [4]: ~25%
